From US20060013804A1, “Modulation of stem cell differentiation by modulation of caspase-3 activity” (Ottawa Health Research Institute, priority 2002, published 2006) come the findings set out here.

Where a SMILES comes first, the peptide text is derived from it. The star is where a group is joined. Cbz = O=C(OCc1ccccc1)*; CH2F = FC*

For series [1], the system named is clonally-derived CD1 neurospheres. As to the kind of experiment: Neurite extensions / morphology of differentiating neurospheres. The format is cell-based, mouse. The settings on record: differentiation media up to 5 d, 2.0 μM inhibitor, vs DMSO. As to the method: Neurospheres were sub-cultured no more than once per collection. The differentiation of neurospheres was initated by plating spheres on poly-L-ornithine coated plates in NeuroCult Differentiation Medium in the absence of bFGF, as per manufacturer's instructions. […] All cultures received fresh media and inhibitor every 24 h for the duration of the experiment. Neurospheres from caspase 3 null embryos (Fernando, P., et al., (2002) Proc Natl Acad Sci USA 99, 11025-11030) were cultured as described above.
Immunocytochemistry: Neurospheres were collected at selected time points, fixed in 4% paraformaldehyde and prepared for immunostaining as previously described (Fernando, P., et al., (2002) Proc Natl Acad Sci USA 99, 11025-11030)). The primary antibody concentrations for anti-nestin, -GFAP, -MBP and -active caspase 3 (BioVision, USA) were titrated on wildtype CD1 neurospheres prior to their experimental use. These antibodies were visualized by counterstaining with either FITC or Cy3 conjugated secondary antibodies (Chemicon USA). Nuclei were localized with 4′,6-Diamidino-2 phenylindole (DAPI) (Sigma, USA). Cells were visualized using either an Axiovert 100 for transmission microscopy or Axioplan 2 for fluorescent microscopy (Zeiss, Germany) at selected magnifications. Captured images were processed using AxioVision Viewer 3.0 software.
Quantitation of Neurite Extensions: Neurites from differentiating neurospheres were estimated from a total of 6-8 neurospheres per condition over three independent experiments. To quantitated neuritis, the average diameter of an individual neurosphere was estimated from the vertical and horizontal distance. The number of extensions leaving the neurosphere body were then counted and an ratio of neurosphere extensions:average neurosphere diameter was calculated for each. All measurements including neurosphere diameter were evaluated using Scion Image.

Series [2] relates to C2C12 myoblasts. As to the kind of experiment: C2C12 myoblast differentiation in low serum media with caspase inhibitors (MF20 staining, immunoblot of myogenic markers). The format is cell-based, mouse. As to conditions: 20 μM inhibitor. The procedure: (§1) Myoblast culture. C2C12 cell (mouse skeletal muscle myoblast) cultures were grown and maintained in DMEM containing 10% FBS with 50 units/ml penicillin and 50 μg/ml streptomycin (Gibco). Differentiation was induced by incubating cultures in DMEM containing only a low serum concentration (2% horse serum). Caspase activity was measured using a Caspase-3 and Caspase-8 Fluorometric Assay Kit (Pharmingen). […] Control cells were treated with an equivalent amount of vehicle (DMSO). Primary myoblast cells were derived from skeletal muscles of the hind- and fore-limbs from 1-2 day old C57BL/6 wild-type, caspase-3 heterozygous and caspase-3 null mice (Frasch, S. C., et al., (1998) J. Biol. Chem. 273, 8389-8397; Kuida, K., et al., (1996) Nature 384, 368-372) (n=5 for each genotype) as described (Cregan, S. P. et al., (1999) J. Neuro. 19, 7860-7869.). To induce differentiation, primary myoblast cultures were incubated in DMEM containing 5% horse serum.
Protein isolation, immunoblot analyses and immunocytochemistry. Cells from C2C12 and primary myoblast cultures were washed with ice-cold PBS and lysed on ice for 45 minutes in modified-RIPA buffer containing 20 mM NaF, 5 mM Na3VO4 and 10 μg/ml each of aprotinin, leupeptin, pepstatin and PMSF. Total protein was measured using the BCA protein assay (Pierce). Immunoblot analyses were performed as described (Creasy, C. L., & Chernoff, J. (1995) J. Biol. Chem. 270, 21695-21700) using antibodies for MST1, MKK6, p38γ, and p38α (Upstate), p38 and MEF2C (Cell Signaling Technologies), myogenin F5D and myosin heavy chain MF20 mAb (Developmental Hybridoma Bank), and active caspase-3 (Biovision).
C2C12 myoblasts were fixed and stained with anti-MF20 as previously described (Cregan, et al., (1999) J. Neuro. 19, 7860-7869). Primary myoblast cultures were fixed in 4% paraformaldehyde, rinsed three times in PBS containing 0.01% Triton X-100 and stained as above. For both C2C12 and primary myoblast cultures, nuclei were detected by incubating cells for 10 min with 4,6-diamidino-2-phenylindole diluted 1:10000 in PBS.
Cells were fixed after 0, 2 and 4 days of differentiation and stained with the myosin heavy chain antibody MF20. […] In contrast, differentiation was more evident in cells that were incubated with caspase-8 inhibitor, z-LETD.fmk (FIG. 2B bottom panel, C).

Series [3] deals with T1, human MST1 (Mammalian Sterile Twenty-like kinase), full length, in vitro translated from MST1-pcDNA3.1 Myc/His.
T1 chain: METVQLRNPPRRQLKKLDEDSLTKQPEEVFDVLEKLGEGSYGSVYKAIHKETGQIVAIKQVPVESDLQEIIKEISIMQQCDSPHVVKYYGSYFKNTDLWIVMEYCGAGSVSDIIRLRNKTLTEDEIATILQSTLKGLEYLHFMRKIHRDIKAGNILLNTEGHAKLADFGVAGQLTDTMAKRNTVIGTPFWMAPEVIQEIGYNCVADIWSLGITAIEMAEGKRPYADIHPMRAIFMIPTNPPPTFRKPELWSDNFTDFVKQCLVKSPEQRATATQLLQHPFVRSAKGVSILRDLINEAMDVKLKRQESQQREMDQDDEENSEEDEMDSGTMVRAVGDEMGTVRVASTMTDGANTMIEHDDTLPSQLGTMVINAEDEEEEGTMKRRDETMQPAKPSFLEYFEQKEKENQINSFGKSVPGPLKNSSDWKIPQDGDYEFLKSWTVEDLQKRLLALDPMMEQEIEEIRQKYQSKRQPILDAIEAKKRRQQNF

The test system of series [4] is C2C12 myoblasts. As to the kind of experiment: Transfection of recombinant active caspase-3 protein into subconfluent C2C12 myoblasts in growth media. The format is cell-based, mouse. As to the method:
To further test a cell-autonomous role of caspase-3 in inducing myoblast differentiation, active caspase-3 protein was transfected into a subconfluent population of C2C12 myoblasts maintained in growth media. Sub-confluent C2C12 myoblasts were transfected with […] of recombinant active caspase-3 and examined after 12 h for the presence of myosin heavy chain (anti-MF20) detected using a FITC conjugated secondary antibody. A confluent population of cells were incubated in low serum media (differentiation media) to induce myoblast differentiation and examined after 12 h. In all cells examined, nuclei were localised with DAPI staining. The results are shown in FIG. 3, which is representative of 7 trials.

Series [5] concerns caspase-3-/- primary myoblasts. The series is described as follows: Transfection of MST1 constructs into caspase-3-/- primary myoblasts (rescue of myogenesis). The format is cell-based, mouse. The settings on record: transient transfection, primary caspase-3-/- myoblasts. The procedure:
as §1
Transfection Assays. The complete open reading frame of the human MST1, [Genbank Accession No. gi|1117790] obtained from a clone bank collection (Stratagene) was inserted into the expression vector pcDNA3.1 Myc/His (Invitrogen). A constitutively active MST1 (MST1-act) was prepared as previously described (Megeney, L. A., et al., (1996) Genes Dev 10, 1173-1183). The integrity of both MST1 and MST1-act were confirmed by sequencing. The kinase activity of these protein products were verified by transient transfection into COS1 cells followed by immunoprecipitation and kinase analysis using Histone-H1 as the target substrate (see below). Transfections with MST1 and MST1-act into both COS1 and primary myoblasts were performed using Lipofectamine Plus (Gibco) as directed in the manufacturer's instructions.
To delineate the effect of MST1 on myogenesis, wild-type MST1, an activated MST1 (aa 1-330, MST1-act) or plasmid alone was transiently transfected into primary myoblasts derived from caspase-3^−/− mice. The activity of these constructs was verified by Histone H1 targeted kinase analysis of MST1 from transiently transfected COS1 cells (FIG. 5A).

With `COC(=O)C[C@H](NC(=O)[C@H](C)NC(=O)[C@@H](NC(=O)OCc1ccccc1)C(C)C)C(=O)CF` [z-VAD.fmk] (Cbz-Val-Ala-Asp(OMe)-CH2F), the “neurite extensions / morphological changes” value in series [1] was “gave results similar to caspase 3 inhibition”. `CC[C@H](C)[C@H](NC(=O)OCc1ccccc1)C(=O)N[C@@H](CCC(=O)OC)C(=O)N[C@H](C(=O)N[C@@H](CC(=O)OC)C(=O)CF)[C@@H](C)O` [z-IETD.fmk] (Cbz-IE(OMe)TD(OMe)-CH2F): the “neurite extensions / morphological changes” value in series [1] is recorded as “did not affect morphological changes in neurosphere differentiation”; in series [1] (listed as IETD), “extensive neurite networking present”. Regarding `COC(=O)CC[C@H](NC(=O)[C@H](CC(C)C)NC(=O)OCc1ccccc1)C(=O)N[C@H](C(=O)N[C@@H](CC(=O)OC)C(=O)CF)[C@@H](C)O` [z-LETD.fmk] (Cbz-LE(OMe)TD(OMe)-CH2F), the myotube formation result with C2C12 myoblasts [2] (C2C12, low serum media, MF20 staining, up to 4 days, vs DMSO) is “minor attenuation of myotube formation”. In the series on C2C12 myoblasts [2] (C2C12, low serum, vs vehicle treated cells), the degree of differentiation entry is recorded as “remained below that observed in vehicle treated cells”.

B1: caspase-3 (endogenous, in lysates or cultures of mouse C2C12 myoblasts and mouse CD1 neurospheres) (protein)
chain: SGIYLDSSYKMDYPEMGICIIINNKNFHKSTGMSSRSGTDVDAANLRETFMGLKYQVRNKNDLTREDILELMDSVSKEDHSKRSSFVCVILSHGDEGVIYGTNGPVELKKLTSFFRGDYCRSLTGKPKLFIIQACRGTELDCGIETDSGTDEEMACQKIPVEADFLYAYSTAPGYYSWRNSKDGSWFIQSLCSMLKLYAHKLEFMHILTRVNRKVATEFESFSLDSTFHAKKQIPCIVSMLTKELYFYH
B1: in series [3], the “proteolytic cleavage of [35S]-methionine labelled MST1 by C2C12 lysates (SDS-PAGE, autoradiography)” value is “the lower 36 kDa MST1 fragment was not apparent in samples where caspase-3 activity was inhibited”. Besides, the “transfected cells undergoing differentiation” value with C2C12 myoblasts [4] (C2C12 in growth media, 20 µg protein, 12 h, myosin heavy chain immunodetection, n=4) is greater than 95%. For the same molecule, the “morphologic features of apoptosis” value in the series with C2C12 myoblasts [4] (transfected C2C12 expressing myosin heavy chain) was “did not display any morphologic features normally attributed to apoptosis”.

B2: wild-type MST1: complete open reading frame of human MST1 in expression vector pcDNA3.1 Myc/His, transfected (protein)
chain: T1 chain
For the molecule B2, the “myotube formation in caspase-3-/- myoblasts” value in series [5] is on record as “remained as mono-nucleated myoblasts”.
